Some test systems named below: SF-268; EKVX; OVCAR-3; SW-620; SF-539; OVCAR-4; U-251; TK-10; SN12C; IGROV-1; K562; COLO 205; RXF 393; HOP-62; SK-MEL-28; HCT-15; OVCAR-8; SK-OV-3; HT-29; Malme-3M.
What all share (assay): inhibition of tumour cell growth, NCI panel, 48 h

Results on five compounds are retold here after ChEMBL document CHEMBL1201862, “PubChem BioAssay data set” (2004).

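A five-concentration, 48-hour dose response in 96-well plates underlies each endpoint, interpolated linearly between surrounding concentrations. At the GI50, growth is halved.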 Calls of active or inactive are those of the source. No stated cut-off is given here; in the data, active = GI50 up to about 1.1 µM and inactive = higher.

Consider `CC1=C(C(=O)Nc2ccc(Cl)c(C(=O)OC(C)C)c2)SCCO1`, for which the GI50 in the test with SF-268 is 30.6 µM (inactive); in the test with EKVX, 71.4 µM (inactive); in the test on OVCAR-3, 86.1 µM (inactive); in the test on SW-620, 74.8 µM (inactive); with SF-539 it was > 89.3 µM (inactive); in the test with OVCAR-4, 56.8 µM (inactive). Moreover, the GI50 was 55.7 µM (inactive) with U-251; > 100 µM (inactive) with TK-10; > 100 µM (inactive) in the test on SN12C; 72.4 µM (inactive) in the test on IGROV-1; 45.6 µM (inactive) with K562; 51.9 µM (inactive) in the test on COLO 205. For the same compound, the GI50 is 48.1 µM (inactive) in the test with RXF 393; > 91.4 µM (inactive) with HOP-62; 74.6 µM (inactive) in the test with SK-MEL-28; 69 µM in the test with HCT-15; 81.3 µM (inactive) in the test on OVCAR-8; > 81.1 µM (inactive) with SK-OV-3. Further, the GI50 in the test with HT-29 was 25.7 µM (inactive); in the test on Malme-3M it was 47.3 µM (inactive).

As for `CCOC(=O)C1=CC(C)(C(=O)OCC)Nc2c(nc(OC)n(C)c2=O)N1` (stereo not given), the GI50 in the test with SF-268, in the test on EKVX, in the test on OVCAR-3, in the test with SW-620, in the test on SF-539 and in the test on OVCAR-4 was > 10 µM (inactive) in each case. Moreover, the GI50 with U-251, in the test on TK-10, in the test on SN12C, with IGROV-1, with K562 and in the test with COLO 205 was > 10 µM (inactive) throughout. The GI50 in the test with RXF 393 is > 10 µM (inactive); with HOP-62, > 10 µM (inactive); with SK-MEL-28 it was > 10 µM (inactive); in the test on HCT-15 it was above 10 µM; in the test on OVCAR-8 it was > 10 µM (inactive); in the test on SK-OV-3, > 10 µM (inactive). The GI50 with HT-29 and in the test with Malme-3M was > 10 µM (inactive) each time.

Turning to `CCOC(=O)c1c(SC(=O)c2ccc(Cl)cc2)n(-c2ccccc2)c(=S)n(-c2ccccc2)c1=O`, the GI50 in the test with SF-268, with EKVX, with OVCAR-3, in the test on SW-620, with SF-539 and in the test on OVCAR-4 was > 100 µM (inactive) each time. Moreover, the GI50 with U-251, with TK-10, in the test on SN12C, in the test on IGROV-1, with K562 and in the test with COLO 205 was > 100 µM (inactive) in each case. For the same compound, the GI50 in the test with RXF 393 is > 100 µM (inactive); in the test with HOP-62, > 100 µM (inactive); with SK-MEL-28 it was > 100 µM (inactive); in the test with HCT-15, above 100 µM; in the test on OVCAR-8, > 100 µM (inactive); in the test on SK-OV-3 it was > 100 µM (inactive). The GI50 with HT-29 and in the test on Malme-3M was > 100 µM (inactive) each time.

Take `CC1(C)N/C(=C\C=O)C(C)(C)N1O`: the GI50 in the test with SF-268, in the test on EKVX, in the test on OVCAR-3, with SW-620, in the test with SF-539 and in the test on OVCAR-4 was > 100 µM (inactive) each time. Besides, the GI50 in the test with U-251, in the test on TK-10, with SN12C, in the test with IGROV-1, in the test with K562 and in the test with COLO 205 was > 100 µM (inactive) each time. Further, the GI50 is > 100 µM (inactive) in the test on RXF 393; > 100 µM (inactive) in the test on HOP-62; > 100 µM (inactive) with SK-MEL-28; above 100 µM with HCT-15; > 100 µM (inactive) in the test with OVCAR-8; > 100 µM (inactive) in the test with SK-OV-3. The GI50 in the test on HT-29 and in the test with Malme-3M was > 100 µM (inactive) each time.

For the compound `COc1ccc(-c2c(C#N)c(NC(=S)NC(=O)c3ccccc3)nc3c2CCCC3)cc1OC`, the GI50 was 41.8 µM (inactive) with SF-268; 24.5 µM (inactive) in the test on EKVX; 99.5 µM (inactive) in the test on OVCAR-3; 75.9 µM (inactive) with SW-620; 30.2 µM (inactive) in the test with SF-539; 45.4 µM (inactive) in the test on OVCAR-4. Also, the GI50 with U-251 is 71.1 µM (inactive); in the test with TK-10, 45.4 µM (inactive); in the test with SN12C it was 49 µM (inactive); with IGROV-1 it was 62.1 µM (inactive); in the test with K562, 29.6 µM (inactive); in the test on COLO 205 it was > 100 µM (inactive). In addition, the GI50 is 18.3 µM (inactive) in the test with RXF 393; 44.9 µM (inactive) in the test on HOP-62; 61.4 µM (inactive) with SK-MEL-28; above 100 µM with HCT-15; 48.5 µM (inactive) with OVCAR-8; > 100 µM (inactive) in the test on SK-OV-3. Further, the GI50 in the test with HT-29 was 58.6 µM (inactive); in the test with Malme-3M it was 29.8 µM (inactive).
